Legend:
LD50 (mice) = details: mouse, in vivo
Candida albicans [1] = experiment: oral activity in Candida-infected mice (survival); assay type: in vivo; details: 100 mg/kg orally twice a day for 7 days; for Number of Animals surviving on day 1 after infection / Number of Animals surviving on day 2 after infection / Number of Animals surviving on day 3 after infection / Number of Animals surviving on day 4 after infection / Number of Animals surviving on day 5 after infection / Number of Animals surviving on day 6 after infection / Number of Animals surviving on day 7 after infection: groups of 10 mice
Method: In order to determine oral activity, groups of 10 mice weighing approximately 20 g were pretreated for 2 days with intramuscular doses of 50 mg/kg of hydrocortisone in order to obtain firm rooting of the infection. The mice were then each infected intravenously with 500,000 Candida albicans germs and subsequently treated orally twice a day for 7 days with 100 mg/kg of the substance to be tested. In addition to an infected, but untreated control group, another group was treated for comparison with the comparison substance MICONAZOL.

Candida albicans [2] = experiment: series dilution test in vitro, Candida albicans; assay type: cell-based; details: dilution b=1:100,000
Method: The antimicrobial activity of the compounds corresponding to general formula (I) in vitro was tested in a series dilution test with dilution ratios of from 1:10,000 to 1:200,000 against the germs Staphylococcus aureus, Trichophyton mentagrophytes and Candida albicans.
The results were evaluated by the following graduations of the growth inhibition level:
.phi.=complete inhibition
The following dilution ratios were selected as the dilution ratio V: […]

OC(Cc1ccc(Cl)cc1Cl)(Cn1ccnc1)c1ccc(Cl)cc1Cl (stereo not drawn) [Example 9, 1,2-bis-(2,4-dichlorophenyl)-3-(imidazol-1-yl)-propan-2-ol-nitrate]
LD50 (LD50 (mice)): 1000 mg/kg
Number of Animals surviving on day 1 after infection (Candida albicans [1]): 10
Number of Animals surviving on day 2 after infection (Candida albicans [1]): 10
Number of Animals surviving on day 3 after infection (Candida albicans [1]): 10
Number of Animals surviving on day 4 after infection (Candida albicans [1]): 10
Number of Animals surviving on day 5 after infection (Candida albicans [1]): 10
Number of Animals surviving on day 6 after infection (Candida albicans [1]): 10
Number of Animals surviving on day 7 after infection (Candida albicans [1]): 9

Clc1ccc(COC(Cn2ccnc2)c2ccc(Cl)cc2Cl)c(Cl)c1.O=[N+]([O-])O (stereo not drawn) [MICONAZOL, 1-[2,4-dichloro-β-(2,4-dichlorobenzyloxy)-phenethyl]imidazole nitrate, reference compound]
animals still alive on the last day of the treatment (Candida albicans [1]; last day of treatment): 20%
Number of Animals surviving on day 1 after infection (Candida albicans [1]): 10
Number of Animals surviving on day 2 after infection (Candida albicans [1]): 10
Number of Animals surviving on day 3 after infection (Candida albicans [1]): 8
Number of Animals surviving on day 4 after infection (Candida albicans [1]): 8
Number of Animals surviving on day 5 after infection (Candida albicans [1]): 6
Number of Animals surviving on day 6 after infection (Candida albicans [1]): 4
Number of Animals surviving on day 7 after infection (Candida albicans [1]): 2

Cl.OC(Cc1ccc(Cl)cc1)(Cn1ccnc1)c1ccc(Cl)cc1Cl (stereo not drawn) [Example 30, 1-(4-chlorophenyl)-2-(2,4-dichlorophenyl)-3-(imidazol-1-yl)-propan-2-ol hy drochloride]
LD50 (LD50 (mice)): 1000 mg/kg
Number of Animals surviving on day 1 after infection (Candida albicans [1]): 10
Number of Animals surviving on day 2 after infection (Candida albicans [1]): 10
Number of Animals surviving on day 3 after infection (Candida albicans [1]): 10
Number of Animals surviving on day 4 after infection (Candida albicans [1]): 10
Number of Animals surviving on day 5 after infection (Candida albicans [1]): 10
Number of Animals surviving on day 6 after infection (Candida albicans [1]): 10
Number of Animals surviving on day 7 after infection (Candida albicans [1]): 10

OC(Cc1ccc(Cl)cc1Cl)(Cn1ccnc1)c1ccccc1 (stereo not drawn) [Example 34, 1-(2,4-dichlorophenyl)-2-phenyl-3-(imidazol-1-yl)-propan-2-ol nitrate]
Number of Animals surviving on day 1 after infection (Candida albicans [1]): 10
Number of Animals surviving on day 2 after infection (Candida albicans [1]): 10
Number of Animals surviving on day 3 after infection (Candida albicans [1]): 10
Number of Animals surviving on day 4 after infection (Candida albicans [1]): 10
Number of Animals surviving on day 5 after infection (Candida albicans [1]): 10
Number of Animals surviving on day 6 after infection (Candida albicans [1]): 10
Number of Animals surviving on day 7 after infection (Candida albicans [1]): 9

OC(Cc1ccc(Cl)cc1)(Cn1ccnc1)c1ccc(Cl)cc1 (stereo not drawn) [Example 8, 1,2-bis-(4-chlorophenyl)-3-(imidazol-1-yl)-propan-2-ol nitrate]
LD50 (LD50 (mice)): 1000 mg/kg
Number of Animals surviving on day 1 after infection (Candida albicans [1]): 10
Number of Animals surviving on day 2 after infection (Candida albicans [1]): 10
Number of Animals surviving on day 3 after infection (Candida albicans [1]): 10
Number of Animals surviving on day 4 after infection (Candida albicans [1]): 10
Number of Animals surviving on day 5 after infection (Candida albicans [1]): 10
Number of Animals surviving on day 6 after infection (Candida albicans [1]): 10
Number of Animals surviving on day 7 after infection (Candida albicans [1]): 10

OC(Cc1ccc(Cl)cc1)(Cn1ccnc1)c1ccccc1 (stereo not drawn) [Example 28, 1-(4-chlorophenyl)-2-phenyl-3-(imidazol-1-yl)-propan-2-ol nitrate]
growth inhibition level, Candida albicans (Candida albicans [2]): + ++
Number of Animals surviving on day 1 after infection (Candida albicans [1]): 10
Number of Animals surviving on day 2 after infection (Candida albicans [1]): 10
Number of Animals surviving on day 3 after infection (Candida albicans [1]): 10
Number of Animals surviving on day 4 after infection (Candida albicans [1]): 10
Number of Animals surviving on day 5 after infection (Candida albicans [1]): 10
Number of Animals surviving on day 6 after infection (Candida albicans [1]): 10
Number of Animals surviving on day 7 after infection (Candida albicans [1]): 10

OC(Cc1ccccc1)(Cn1ccnc1)c1ccc(Cl)cc1 (stereo not drawn) [Example 15, 1-phenyl-2-(4-chlorophenyl)-3-(imidazol-1-yl)-propan-2-ol nitrate]
Number of Animals surviving on day 1 after infection (Candida albicans [1]): 10
Number of Animals surviving on day 2 after infection (Candida albicans [1]): 10
Number of Animals surviving on day 3 after infection (Candida albicans [1]): 10
Number of Animals surviving on day 4 after infection (Candida albicans [1]): 10
Number of Animals surviving on day 5 after infection (Candida albicans [1]): 10
Number of Animals surviving on day 6 after infection (Candida albicans [1]): 10
Number of Animals surviving on day 7 after infection (Candida albicans [1]): 9
